Test [1] deals with human platelet-rich plasma (ADP-induced platelet aggregation). Briefly: In vitro inhibition of ADP-induced human platelet aggregation (Born aggregometer method). The test is classed as cell-based. The protocol: (§1) The aggregometer method of Born, C. […] The human volunteer donor's arm is cleansed with 70% ethyl alcohol. A sterile 20 ml syringe and needle are used to withdraw 20 ml of blood.
(§2) All glassware used for preparation of PRP is silicon treated. […] The various compounds tested were dissolved in dimethylsulfoxide (DMSO) so that 5 mcl added to the platelet rich plasma would yield the desired test concentration. Vehicle control trials were done and compared with aggregation induced in platelet rich plasma containing various concentrations of the test compounds. Dose response curves were obtained and Inhibitor Concentration IC50) values calculated.

In test [2] the test system is biolaser induced thrombosis (thrombus formation). Briefly: In vivo inhibition of biolaser induced thrombosis in rabbit ear chamber. Further details: species or system English lop-ear rabbits. From the text: The laser induced thrombosis method is a modification of the technique developed by Sanders, A. G., et al. in Brit. J Exp. Pathol., 1954, 35, 331 and Grant, L., et al. in Proc. Soc. Exp. Biol. Med., 1965, 119, 1123. A detailed description of this method has been described by Fleming, J. S., et al., in Platelets and Thrombosis, A. Scriabine and S. Sherry, eds., Baltimore, Univ. Park Press, pp. 247-262, 1974 and is hereby incorporated by reference.
Briefly, Lucite ear chambers were chronically implanted in adult, English lop-ear rabbits. The animals were conditioned to lie quietly in the supine position. Localized microvascular injury was induced by focusing a single ruby laser beam through a microscope into the lumen of a vessel 10-60 μM in diameter. This evoked the formation of a small thrombus consisting of platelets accumulated around a core of one or two damaged red cells. Thrombus area was determined as a product of two perpendicular measurements made by using a micrometer eye piece. The mean thrombus area (μM^2) obtained for 10 trials in each rabbit served as a control value. The test compound was administered orally and post-dose trials were performed at selected times. Pharmacological activity was evaluated by comparing pre- and post-dose mean thrombus areas.

Test [3] deals with human platelet-rich plasma (collagen-induced platelet aggregation). Briefly: In vitro inhibition of collagen-induced human platelet aggregation (Born aggregometer method). It counts as cell-based. Conditions: human PRP, 0.05 mL of a collagen suspension. The protocol:
as §1, §2

The mark [4] stands for this setting: human PRP, ADP 0.5 mcg/mL, read-out: IC50 - Human PRP vs:ADP.

Here are results for 14 molecules from patent US4994482A, “Arylpyrazol derivatives as anti-platelet agents, compositions and use” (Bristol-Myers Squibb Company, priority 1990, dated 1991).

Converted amounts (≈) assume the structure as drawn. Like-named read-outs stand apart in the source and are kept apart here.

With `O=C(O)CCCCCCCCn1nc(-c2ccccc2)c(-c2ccccc2)c1-c1ccccc1` [Example 15, 3,4,5-Triphenyl-lH-pyrazol-1-nonanoic acid hydrate], the figures for the half-maximal inhibitory concentration (IC50) in test [1] (setting [4]) and in test [3] were 0.16 µg/mL and 0.068 µg/mL, respectively. Besides, the “inhibition of thrombus formation” value was “approximately 30%” in test [2] (oral 1 mg/kg), “over 60%” in test [2] (oral 10 mg/kg) and “over 60%” in test [2] (oral 30 mg/kg).

For the molecule `O=C(O)CCCCCCCCCn1nc(-c2ccccc2)c(-c2ccccc2)c1-c1ccccc1` [Example 36, 3,4,5-triphenyl-lH-pyrazole-1-decanoic acid hydrate], in test [1] (setting [4]), the 50% inhibitory concentration (IC50) is 3.5 µg/mL.

As to `O=C(O)CSCCCCCn1nc(-c2ccccc2)c(-c2ccccc2)c1-c1ccccc1` [Example 27, [[5-(3,4,5-Triphenyl-lH-pyrazol-1-yl)pentyl]thio]acetic acid], the IC50 in test [1] (setting [4]) was determined as 1.9 µg/mL (≈ 4.16 µM); in test [3], 0.16 µg/mL (≈ 0.35 µM).

In the case of `O=C(O)COCCCCCCn1nc(-c2ccccc2)c(-c2ccccc2)c1-c1ccccc1` [Example 4, [[6-(3,4,5-Triphenyl-lH-pyrazol-1-yl)hexyl]oxy]acetic acid], the values for the IC50 in test [1] (setting [4]) and in test [3] were 0.2 µg/mL (≈ 0.44 µM) and 0.096 µg/mL (≈ 0.211 µM), respectively.

On to `O=C(O)CCCCCCCCn1cc(-c2ccccc2)c(-c2ccccc2)n1` [Example 17, 3,4-Diphenyl-lH-pyrazol-1-nonanoic acid hydrate], for which the half-maximal inhibitory concentration (IC50) in test [1] (setting [4]) is 1.5 µg/mL.

With `O=C(O)CCCC=CCCCn1nc(-c2ccccc2)c(-c2ccccc2)c1-c1ccccc1` [Example 10, (Z) and (E)-9-(3,4,5-Triphenyl-lH-pyrazol-1-yl)-5-nonenoic acid hydrate], the concentration for half-maximal inhibition (IC50) was 0.35 µg/mL in test [1] (setting [4]) and 0.12 µg/mL in test [3].

Turning to `COC(=O)CCCCCCCCn1nc(-c2ccccc2)c(-c2ccccc2)c1-c1ccccc1` [Example 14, Methyl 3,4,5-triphenyl-lH-pyrazol-1-nonanoate], the half-maximal inhibitory concentration (IC50) worked out at 2 µg/mL (≈ 4.29 µM) in test [1] (setting [4]) and 0.27 µg/mL (≈ 0.579 µM) in test [3].

On to `O=C(O)C[S+]([O-])CCCCCCn1nc(-c2ccccc2)c(-c2ccccc2)c1-c1ccccc1` (stereo not shown) [Example 25, [[6-(3,4,5-Triphenyl-lH-pyrazol-1-yl)hexyl]sulfinyl]acetic acid hydrate], for which the half-maximal inhibitory concentration (IC50) in test [1] (setting [4]) came out at 3.2 µg/mL.

For `O=C(O)CSCCCCCCn1nc(-c2ccccc2)c(-c2ccccc2)c1-c1ccccc1` [Example 21, [[6-(3,4,5-Triphenyl-lH-pyrazol-1-yl)hexyl]thio]acetic acid], the half-inhibitory concentration (IC50) in test [1] (setting [4]) was determined as 0.41 µg/mL (≈ 0.871 µM); in test [3], 0.15 µg/mL (≈ 0.319 µM).

`O=C(O)CCCCCCCCn1ncc(-c2ccccc2)c1-c1ccccc1` [Example 18, 4,5-Diphenyl-lH-pyrazol-1-nonanoic acid]: the concentration for half-maximal inhibition (IC50) in test [1] (setting [4]) came out at 2.5 µg/mL (≈ 6.64 µM); in test [3], 0.45 µg/mL (≈ 1.2 µM).

Turning to `c1ccc(-c2nn(CCCCCCCCc3nn[nH]n3)c(-c3ccccc3)c2-c2ccccc2)cc1` [Example 40, 5-[8-(3,4,5-Triphenyl-lH-pyrazol-1-yl)octyl]-2 H-tetrazole], the values for the 50% inhibitory concentration (IC50) in test [1] (setting [4]) and in test [3] were 0.5 µg/mL (≈ 1.05 µM) and 0.052 µg/mL (≈ 0.109 µM), respectively.

As for `OCCN(CCO)c1nc(N2CCCCC2)c2nc(N(CCO)CCO)nc(N3CCCCC3)c2n1` [dipyridamole, reference compound], in test [1] (Homo sapiens, read-out: IC50 vs. ADP), the 50% inhibitory concentration (IC50) is greater than 512 µg/mL.

On to `O=C(O)CCCCCCCn1ncc(-c2ccccc2)c1-c1ccccc1` [Example 44, 4,5-Diphenyl-lH-pyrazole-1-octanoic acid], for which the IC50 in test [1] (setting [4]) worked out at 0.6 µg/mL (≈ 1.66 µM).

In the case of `O=C(O)CCCCCCCn1nc(-c2ccccc2)c(-c2ccccc2)c1-c1ccccc1` [Example 8, 3,4,5-Triphenyl-lH-pyrazol-1-octanoic acid hydrate], the IC50 in test [1] (setting [4]) is 1.9 µg/mL.
